From US20150165400A1, “CRYSTALLISATION PROCESS” (University of Bradford, priority 2012, published 2015) come the findings set out here.

A short description of data set [1]: Pharmacokinetic study of artemisinin, plasma level by HPLC. The data set is classed as in vivo, albino wistar rats. The conditions noted are these: rats, 100 mg artemisinin in 0.5% aqueous CMC. As to the method: A pharmacokinetic study of artemisinin was carried out. The study was performed using 36 healthy albino wistar rats with a weight ranging from 180 to 200 grams. The wistar rats were taken and divided into three groups; a control group, the orthorhombic crystal form group and the triclinic crystal form group. A sparse technique was used to collect blood samples (n=6). The animals were housed in standard metabolism cages and were subject to fasting conditions for 12 hours before dosing. The animals were allowed free movement and access to water throughout the experiment. […] At predetermined time intervals, blood samples were obtained by the retro orbital technique and collected in EDTA tubes. Plasma was obtained by centrifugation of the blood sample at 3500 revolutions per minute (rpm) for 15 minutes. A volume of 200 μl of plasma was pipetted into Eppendorf tubes and 100 μl of internal standard (artemether solution […]) and 700 μl methanol were added. […] The collected sample was then subjected to analysis by HPLC. […] The HPLC system consisted of an Agilent 1200 series, UV detector (Agilent Technologies, […], Wokingham, United Kingdom) set at 210 nm and a C18 column (250×4.6 mm). […] The plasma concentration-time profiles were plotted and Areas Under Curve (AUC) were calculated (shown in FIG. 35) using the Trapezoidal rule.

The nature of data set [2]: In-vitro dissolution profile, USP-XXVI paddle method. The conditions noted are these: water, 600 ml, 75 rpm, 37° C., 20 mg artemisinin. The data set is classed as physicochemical.
Data set [3] in a line: Effect of externally added solvents on extruded triclinic form, stability by PXRD. Type of data set: physicochemical. The source says:
Effect of different solvents such as acetone, ethanol, cyclohexane, methanol and water on extruded triclinic form was studied. […] FIGS. 21 to 25 show the PXRD patterns highlighting the effect of adding the different solvents to extrude. It was observed that conversion rate from triclinic to orthorhombic form was proportional to solubility of orthorhombic form in each solvent.

Data set [4] can be described thus: Stability study of triclinic form recrystallised from cyclohexane, PXRD. Type of data set: physicochemical. The conditions noted are these: recrystallised from cyclohexane at 80° C., vacuum dried. The source says:
The product obtained was vacuum dried and the crystal form was confirmed by PXRD.

Each structure is given as a SMILES string.

Consider `C[C@@H]1CC[C@H]2[C@@H](C)C(=O)O[C@@H]3O[C@@]4(C)CC[C@@H]1[C@]32OO4` [orthorhombic form, artemisinin, reference compound], for which, in data set [1] (oral, plasma), the “average maximum concentration (Cmax)” value was determined as 16 µg/mL and the “average time where the concentration reached a maximum (Tmax)” value turned out to be 4 h.
As to `C[C@@H]1CC[C@H]2[C@@H](C)C(=O)O[C@@H]3O[C@@]4(C)CC[C@@H]1[C@]32OO4` [triclinic form, artemisinin], the “dissolution rate in comparison with starting material” value in data set [2] was “four times greater”. Further, in data set [3] (0.2 ml solvent added to 3 g extruded sample), the “rank order of transformation from triclinic to orthorhombic form” value was “acetone>methanol>ethanol>cyclohexane>water”. The “transformation to orthorhombic form in the sample containing water” value in data set [3] (0.2 ml water added to 3 g extruded sample) is on record as “no transformation was observed”. The Cmax in data set [1] (albino Wistar, rat, plasma, po, 100 mg, plasma, read-out: average maximum concentration (Cmax)) is 31000 ng/mL. In addition, in data set [1] (albino Wistar, rat, plasma, po, 100 mg, plasma, read-out: average time where the concentration reached a maximum (Tmax)), the Tmax was found to be 5 h. Further, the “AUC compared with the orthorhombic form” value in data set [1] (oral) is reported as “two fold increase”.
For the compound `C[C@@H]1CC[C@H]2[C@@H](C)C(=O)O[C@@H]3O[C@@]4(C)CC[C@@H]1[C@]32OO4` [artemisinin], the “stability of crystal form (transformation to orthorhombic form)” value in data set [4] was “transformed to orthorhombic form within a week”.
